target: T1, interaction between KRS and laminin receptor (67LR) (Homo sapiens, UniProt Q15046); assay: Yeast two hybrid growth assay, LexA-KRS/B42-LR pair; format: cell-based; conditions: growth inhibition of yeast EGY/SH cells with LexA-KRS/B42-LR vs control; 1 μl of 10 mg/ml compound per well, 6 days, absorbance 540 nm
T1 construct: expressed in transfected cells; host or cells: yeast EGY/SH cells
Method: On the compound of the present invention obtained by screening a library of compounds, the extent of inhibition on the interaction between KRS and laminin receptor (67LR) was determined by a yeast two hybrid assay, as described below. KRS, LR, AIMP2, AIMP3 and MRS were cloned at LexA vector (clontech) and B42 vector (clontech) each so as to produce required vectors. From among the vectors, LexA-KRS vector and B42-LR vector were co-transformed into yeast EGY/SH cells, and then the yeast cells were diluted to an absorbance (540 nm wavelength) of 0.2 in galactose medium not containing uracil (Ura), histidine (His), tryptophane (Trp) and leucine (Leu), and placed in an amount of 200 u in a 96 well plate. 1 μl of each compound at a concentration of 10 mg/ml was placed in each well, incubated for 6 days, and the absorbance was measured at 540 nm. […] The inhibitory specificity of the selected compound was tested by using two different interaction pairs such as LexA-KRS/B42-AIMP2 and LexA-MRS/B42-AIMP3.
In order to determine if the compound of the present invention controls the interaction between KRS and laminin receptor, the present inventors determined the interaction between KRS and 67LR through treatment of the compound of the present invention.

T1 sequence (Q15046 whole entry): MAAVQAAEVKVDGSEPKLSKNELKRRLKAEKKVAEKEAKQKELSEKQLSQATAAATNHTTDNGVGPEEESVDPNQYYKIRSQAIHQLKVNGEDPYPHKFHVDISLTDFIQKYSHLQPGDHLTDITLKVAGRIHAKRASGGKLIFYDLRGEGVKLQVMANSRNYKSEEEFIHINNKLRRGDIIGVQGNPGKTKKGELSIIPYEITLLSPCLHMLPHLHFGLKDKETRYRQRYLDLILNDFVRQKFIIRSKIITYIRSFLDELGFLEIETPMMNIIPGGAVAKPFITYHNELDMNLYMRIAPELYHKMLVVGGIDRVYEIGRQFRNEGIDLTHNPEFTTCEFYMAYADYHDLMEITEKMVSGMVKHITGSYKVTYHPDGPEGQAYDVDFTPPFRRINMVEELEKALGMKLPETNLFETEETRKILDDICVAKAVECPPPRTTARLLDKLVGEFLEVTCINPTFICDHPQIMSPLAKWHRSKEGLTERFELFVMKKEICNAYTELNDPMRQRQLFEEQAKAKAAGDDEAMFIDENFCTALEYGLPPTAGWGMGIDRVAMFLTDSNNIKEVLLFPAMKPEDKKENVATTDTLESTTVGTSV

Inhibition rate(%) | SMILES
59.98 | COc1ccc2oc(NC(=O)c3ccccc3)nc2c1 [Compound of formula 3, N-(5-Methoxy-benzooxazol-2-yl)-benzamide]

same assay, conditions: growth inhibition of yeast EGY/SH cells with LexA-KRS/B42-LR vs control; 1 μl of 10 mg/ml compound per well, 6 days, absorbance 540 nm; read-out: Inhibition rate(%)

inhibition at 10000 µg/mL (stock) [%] | SMILES
54.2 | COc1ccc2nc(NC(=O)c3ccccc3)oc2c1 [Compound of formula 2, N-(6-Methoxy-benzooxazol-2-yl)-benzamide]
51.8 | Clc1ccc2oc(Nc3ccccc3)nc2c1 [Compound of formula 4, (5-Chloro-benzooxazol-2-yl)-phenyl-amine]
47.5 | CCc1ccc(Nc2nc3cc(Cl)ccc3o2)cc1 [Compound of formula 5, (5-Chloro-benzooxazol-2-yl)-(4-ethyl-phenyl)-amine]
52.8 | Clc1ccc2oc(Nc3ccc(Cl)c(Cl)c3)nc2c1 [Compound of formula 6, (5-Chloro-benzooxazol-2-yl)-(3,4-dichloro-phenyl)-amine]
47.6 | O=[N+]([O-])c1ccc2oc(Nc3ccc(/N=N/c4ccccc4)cc3)nc2c1 [Compound of formula 7, (5-Nitro-benzooxazol-2-yl)-(4-phenylazo-phenyl)-amine]
47.3 | O=C(Nc1nc2ccccc2o1)c1ccccc1 [Compound of formula 8, N-Benzooxazol-2-yl-benzamide]
36.9 | O=C(Nc1nc2cc([N+](=O)[O-])ccc2o1)c1ccccc1 [Compound of formula 9, N-(5-Nitro-benzooxazol-2-yl)-benzamide]
60 | COc1ccc2oc(NC(=O)c3ccccc3)nc2c1 [Compound of formula 10, N-(5-Methoxy-benzooxazol-2-yl)-benzamide]
49.1 | Cc1ccc2oc(NC(=O)c3ccccc3)nc2c1 [Compound of formula 11, N-(5-Methyl-benzooxazol-2-yl)-benzamide]
52.5 | O=C(Nc1nc2ccc([N+](=O)[O-])cc2s1)c1ccc(C(F)(F)F)cc1 [Compound of formula 12, N-(6-Nitro-benzothiazol-2-yl)-4-trifluoromethyl-benzamide]
55.2 | Cc1ccc2oc(-c3ccccc3OCC(=O)O)nc2c1 [Compound of formula 13, [2-(5-Methyl-benzooxazol-2-yl)-phenoxy]-acetic acid]
49.3 | Cc1cc(C)c(-c2nc3cc(N)ccc3o2)c(C)c1 [Compound of formula 14, 2-(2,4,6-Trimethyl-phenyl)-benzooxazol-5-ylamine]
47.6 | COc1cccc(OC)c1-c1nc2ccccc2s1 [Compound of formula 16, 2-(2,6-Dimethoxy-phenyl)-benzothiazole]
36.5 | Fc1ccc(CNCc2c[nH]c3ccc(F)cc23)c(Cl)c1 [Compound of formula 17, (2-Chloro-4-fluoro-benzyl)-(5-fluoro-1H-indol-3-ylmethyl)-amine]

test system: A549 cells; assay: Laminin-dependent membrane translocation of KRS and 67LR with kinase inhibitors; format: cell-based, human; conditions: inhibitor 3 hours then laminin 1 hour
Method: (§1) In FIG. 7, A549 cells were treated with laminin (10 μg/ml), and the levels of 67LR, 37LRP and KRS were determined by western blotting at the indicated times. Hsp90 and cadherin (Cad) were used as markers for cytoplasm and membrane, respectively. In FIG. 8, A549 cells untreated or treated with laminin for 1 hour were subjected to immunofluorescence staining with anti-67LR (MLuC5, Santacruz, sc-59732) (red) and KRS antibodies (green). In FIG. 9, A549 cells were treated with U73122 (U), staurosporin (ST) and LY294002 (LY) that inhibit PLC-gamma, PKC and PI3K, respectively, for 3 hours, and then treated with laminin for 1 hour. Then, it was determined how these kinase inhibitors would affect the cytoplasm and membrane of 67LR and KRS. In FIG. 10, A549 cells were transfected with Myc-KRS, and incubated for 24 hours. Then, the cells were treated with the indicated drugs and then with laminin as above. Myc-KRS was immunoprecipitated, and immunoblotted with anti-p-Thr, -Ser, and -Tyr antibodies. In FIG. 11, A549 cells were transfected with Myc-KRS, and cultured for 24 hours. […] Myc-KRS was immunoprecipitated, and co-precipitation of 67LR was determined by western blotting. […] EPRS (glutamyl-prolyl-tRNA synthetase) was immunoprecipitated with its specific antibody (AbCam), and co-precipitation of KRS was determined by western blotting (upper). […]

SMILES | Laminin-dependent increase of KRS and 67LR in the membrane fraction
COc1ccc2c(c1)CC[C@@H]1[C@@H]2CC[C@]2(C)[C@@H](NCCCCCCN3C(=O)C=CC3=O)CC[C@@H]12 [U73122] | larger laminin-dependent increase of 67LR than those in the control group
CN[C@@H]1C[C@H]2O[C@@](C)([C@@H]1OC)n1c3ccccc3c3c4c(c5c6ccccc6n2c5c31)C(=O)NC4 [staurosporin] | larger laminin-dependent increase of 67LR than those in the control group

test system: KRS; assay: Laminin-induced phosphorylation of KRS (immunoblot p-Thr, -Ser, -Tyr); format: cell-based, human; conditions: A549 cells transfected with Myc-KRS, inhibitor then laminin
Method: as §1

SMILES | laminin-induced phosphorylated KRS at threonine and serine
CN[C@@H]1C[C@H]2O[C@@](C)([C@@H]1OC)n1c3ccccc3c3c4c(c5c6ccccc6n2c5c31)C(=O)NC4 [staurosporin] | did not have any effect
